Drawing on patent publication US9422292B2, “Bromodomain inhibitors and uses thereof” (Constellation Pharmaceuticals, Inc., priority 2011, dated 2016), this text covers IC50 for 26 molecules.

Each structure is given as a SMILES string. Like-named read-outs stand apart in the source and are kept apart here.

The subject of experiment [1] is MYC mRNA in MV4:11 (AML) cells. In words: cMyc RNA quantification assay (QuantiGene) in MV4:11 cells. In kind it is cell-based. Conditions: Homo sapiens, 4 h, QuantiGene 2.0. Here is the method:
B. cMyc RNA Quantification Assay (QuantiGene® Assay):
MV4:11 (AML) cells were seeded in a 96-well plate and incubated in the presence of various concentrations of compounds for 4 h. Relative mRNA levels were quantitated by using QuantiGene 2.0 assay (Affymetrix) according to the manufacturer's recommendation. Signals were detected by using an Envision plate reader (Perkin-Elmer). Biological duplicates were averaged and normalized to vehicle (DMSO) control to calculate percent MYC mRNA levels.

The target of a further experiment is T1, BRD4 (BD1) (Homo sapiens, UniProt O60885).
T1 construct: His; made in house
In words: BRD4 AlphaLisa binding assay. Here is the method: A. IC50 Measurements for Inhibitors Using BRD4 AlphaLisa Binding Assay.
Specifically, in a 384 well ProxiPlate BRD4 (BD1) (30 nM final) was combined with peptide (200 nM final) in 40 mM HEPES (pH 7.0), 40 mM NaCl, 1 mM DTT, 0.01% (w/v) BSA, and 0.008% (w/v) Brij-35 either in the presence of DMSO (final 1.2% DMSO) or compound dilution series in DMSO. After 20 minute incubation at room temperature Alpha streptavidin donor beads and AlphaLisa anti-Flag acceptor beads were added to a final concentration of 10 ug/mL each. After three hours equilibration plates were read on an Envision instrument and IC50s calculated using a four parameter non-linear curve fit.
(In Alpha technology, singlet oxygen from a donor bead excites a nearby acceptor bead.)

Experiment [2] concerns IL-6 secretion in THP-1 cells. In words: Cell-based IL-6 quantification assay (ELISA, Mesoscale) in LPS-treated THP-1 cells. The conditions noted are these: Homo sapiens, LPS 4 μg/mL, 16 h, ELISA value/CellTiter-Glo ratio. Here is the method: C. Cell-Based IL-6 Quantification Assay (ELISA, Mesoscale Assay):
100,000 THP-1 cells were seeded in RPMI1640-10% FBS in 96-well plates. LPS (E. Coli Invitrogen) in RPMI−10% FBS at a final concentration of 4 μg/mL was added to the wells and the cells are then incubated in the presence of various concentrations of compounds for 16 h. Plates are spun ([…], 5 min), an aliquot of 25 uL supernatant is transferred in to an ELISA plate (Mesoscale technology, MSD) and the detection of IL-6 is performed using manufacturer's instructions. The amount of cells in each well is assessed using CellTiter-Glo® (Promega). The ratio of ELISA value/CellTiter-Glo value is used to calculate the percent of inhibition of IL-6 secretion.

Setting [3] is: BRD4 (BD1) 30 nM, biotinylated H4-tetraacetyl peptide 200 nM, read-out: BRD4 AlphaLisa.

Regarding `Cc1nnc2n1-c1ccc(-c3ccc(N)nc3)cc1N(c1ccc(C(N)=O)cc1)CC2C` (stereo in doubt) [Compound 69, (R)-4-(8-(6-aminopyridin-3-yl)-1,4-dimethyl-4H-benzo[b][1,2,4]triazolo[4,3-d][1,4]diazepin-6(5H)-yl)benzamide], the IC50 in experiment [1] is 1000 to 10000 nM; on BRD4 (BD1) (setting [3]), 100 to 1000 nM; in experiment [2], 1000 to 10000 nM. With `Cc1nnc2n1-c1ccc(-c3ccccc3)cc1N(C)CC2` [Compound 4, 1,6-dimethyl-8-phenyl-5,6-dihydro-4H-benzo[b][1,2,4]triazolo[4,3-d][1,4]diazepine], the IC50 (at BRD4 (BD1) (setting [3]); in experiment [2]) was greater than 10000 nM in each case. On to `Cc1nnc2n1-c1ccc(-c3ccc(N)nc3)cc1N(C)CC2` [Compound 5, 5-(1,6-dimethyl-5,6-dihydro-4H-benzo[b][1,2,4]triazolo[4,3-d][1,4]diazepin-8-yl)pyridin-2-amine], for which the IC50 (at BRD4 (BD1) (setting [3]); in experiment [2]) was 1000 to 10000 nM in each case. As for `Cc1nnc2n1-c1ccc(-c3ccc(N)nc3)cc1NCC2` [Compound 6, 5-(1-methyl-5,6-dihydro-4H-benzo[b][1,2,4]triazolo[4,3-d][1,4]diazepin-8-yl)pyridin-2-amine], the values for the IC50 (on BRD4 (BD1) (setting [3]); in experiment [2]) were 1000 to 10000 nM and greater than 10000 nM, respectively. As for `Cc1nnc2n1-c1ccc(-c3ccccc3)cc1NCC2` [Compound 7, 1-methyl-8-phenyl-5,6-dihydro-4H-benzo[b][1,2,4]triazolo[4,3-d][1,4]diazepine], the IC50 is greater than 10000 nM at BRD4 (BD1) (setting [3]) and greater than 1000 nM in experiment [2]. Turning to `Cc1nnc2n1-c1ccccc1N(c1ccc(Cl)cn1)CC2` [Compound 8, 6-(5-chloropyridin-2-yl)-1-methyl-5,6-dihydro-4H-benzo[b][1,2,4]triazolo[4,3-d][1,4]diazepine], the IC50 (on BRD4 (BD1) (setting [3]); in experiment [2]) was 1000 to 10000 nM throughout. As to `Cc1nnc2n1-c1ccccc1N(c1ccc(Cl)cc1)CC2CCO` (stereo not shown) [Compound 9, 2-(6-(4-chlorophenyl)-1-methyl-5,6-dihydro-4H-benzo[b][1,2,4]triazolo[4,3-d][1,4]diazepin-4-yl)ethanol], the IC50 (at BRD4 (BD1) (setting [3]); in experiment [2]) was 1000 to 10000 nM throughout. As to `CCNC(=O)CC1CN(c2ccc(Cl)cc2)c2ccccc2-n2c(C)nnc21` (stereo not shown) [Compound 10, 2-(6-(4-chlorophenyl)-1-methyl-5,6-dihydro-4H-benzo[b][1,2,4]triazolo[4,3-d][1,4]diazepin-4-yl)-N-ethylacetamide], the IC50 (at BRD4 (BD1) (setting [3]); in experiment [2]) was 1000 to 10000 nM throughout. On to `Cc1nnc2n1-c1ccccc1N(c1ccc(Cl)cc1)CC21CC1CO` (stereo not shown) [Compound 11, (6-(4-chlorophenyl)-1-methyl-5,6-dihydrospiro[benzo[b][1,2,4]triazolo[4,3-d][1,4]diazepine-4,1′-cyclopropan]-2′-yl)methanol], for which the IC50 (at BRD4 (BD1) (setting [3]); in experiment [2]) was 1000 to 10000 nM each time. `Cc1nnc2n1-c1ccccc1NC(C)C2` (stereo not shown) [Compound 12, 1,5-dimethyl-5,6-dihydro-4H-benzo[b][1,2,4]triazolo[4,3-d][1,4]diazepine]: the IC50 (at BRD4 (BD1) (setting [3]); in experiment [2]) was greater than 10000 nM throughout. In the case of `Cc1nnc2n1-c1ccc(Br)cc1N(c1ccc(Cl)cc1)CC2` [Compound 13, 8-bromo-6-(4-chlorophenyl)-1-methyl-5,6-dihydro-4H-benzo[b][1,2,4]triazolo[4,3-d][1,4]diazepine], the IC50 (at BRD4 (BD1) (setting [3]); in experiment [2]) was 100 to 1000 nM each time.

`Cc1nnc2n1-c1ccc(-c3ccccc3)cc1N(c1ccc(Cl)cc1)CC2` [Compound 14, 6-(4-chlorophenyl)-1-methyl-8-phenyl-5,6-dihydro-4H-benzo[b][1,2,4]triazolo[4,3-d][1,4]diazepine]: the values for the IC50 (at BRD4 (BD1) (setting [3]); in experiment [2]) were 100 to 1000 nM and 1000 to 10000 nM, respectively.

Turning to `Cc1nnc2n1-c1ccc(-c3cnn(C)c3)cc1N(c1ccc(Cl)cc1)CC2` [Compound 30, 4H-[1,2,4]triazolo[4,3-a][1,5]benzodiazepine,5,6-dihydro-1methyl-8-(1-methyl-1H-pyrazol-4-yl)-6-(4-chloro-phenyl)], at BRD4 (BD1) (setting [3]), the IC50 is less than 100 nM. Still for that read-out and setting: the figure for `Cc1nnc2n1-c1ccc(C#CC(C)(C)N)cc1N(c1ccc(Cl)cc1)CC2C` (stereo not shown) [Compound 31, 4H-[1,2,4]triazolo[4,3-a][1,5]benzodiazepine,5,6-dihydro-1,4-dimethyl-8-(3-amino-3-methylbut-1-ynyll)-6-(4-chloro-phenyl)] is 100 to 1000 nM. For `CCC1CN(c2ccc(Cl)cc2)c2ccccc2-n2c(C)nnc21` (stereo not shown) [Compound 32], the IC50 at BRD4 (BD1) was 1000 to 10000 nM. As to `Cc1nnc2n1-c1ccc(Br)cc1N(c1ccc(Cl)cc1)CC21CC1` [Compound 33, 8-bromo-6-(4-chlorophenyl)-1-methyl-5,6-dihydrospiro[benzo[b][1,2,4]triazolo[4,3-d][1,4]diazepine-4,1′-cyclopropane]], at BRD4 (BD1) (setting [3]), the IC50 lay in the range of 100 to 1000 nM. Turning to `Cc1nnc2n1-c1ccccc1N(c1ccc(Cl)cc1)CC21CC1` [Compound 34, 6-(4-chlorophenyl)-1-methyl-5,6-dihydrospiro[benzo[b][1,2,4]triazolo[4,3-d][1,4]diazepine-4,1′-cyclopropane]], the IC50 on BRD4 (BD1) (setting [3]) lay in the range of 100 to 1000 nM. For `Cc1nnc2n1-c1cc(F)ccc1N(c1ccc(Cl)cc1)CC2C` (stereo not shown) [Compound 35, 4H-[1,2,4]triazolo[4,3-a][1,5]benzodiazepine,5,6-dihydro-1,4-dimethyl-9-fluoro-6-(4-chloro-phenyl)], the IC50 at BRD4 (BD1) (setting [3]) lay in the range of 100 to 1000 nM. Consider `Cc1nnc2n1-c1ccc(C#CC(C)(C)O)cc1N(c1ccc(Cl)cc1)CC2C` (stereo not shown) [Compound 36, 4H-[1,2,4]triazolo[4,3-a][1,5]benzodiazepine,5,6-dihydro-1,4-dimethyl-8-(3-hydroxy-3-methylbut-1-ynyl)-6-(4-chloro-phenyl)], for which, at BRD4 (BD1) (setting [3]), the IC50 lay within 100 to 1000 nM. Take `Cc1nnc2n1-c1ccc(-c3cnc(N)nc3)cc1N(c1ccc(Cl)cc1)C[C@@H]2C` [Compound 40, (S)-4H-[1,2,4]triazolo[4,3-a][1,5]benzodiaze-pine,5,6-dihydro-1,4-dimethyl-8-(2-aminopyrimidin-5-yl)-6-(4-chloro-phenyl)]: the IC50 is 1000 to 10000 nM on BRD4 (BD1) (setting [3]) and greater than 1000 nM in experiment [2]. Taken in the same sequence, the figures for `Cc1nnc2n1-c1ccc(-c3cnn(C)c3)cc1N(c1ccc(C#N)cc1)C[C@@H]2C` [Compound 45, (S)-4H-[1,2,4]triazolo[4,3-a][1,5]benzodiazepine,5,6-dihydro-1,4-dimethyl-8-(1-methyl-1H-pyrazol-4-yl)-6-(4-cyano-phenyl)] were 100 to 1000 nM and greater than 1000 nM. The like results for `Cc1nnc2n1-c1ccc(C(=O)N3CCOCC3)cc1N(c1ccc(Cl)cc1)C[C@H]2C` [Compound 56, 4-R-4H-[1,2,4]triazolo[4,3-a][1,5]benzodiazepine,5,6-dihydro-1,4-dimethyl-8-(morpholine-4-carbonyl)-6-(4-chloro-phenyl)] were, in that order, 100 to 1000 nM and greater than 1000 nM. Taken in the same sequence, the figures for `Cc1nnc2n1-c1ccc(-c3cnn(C)n3)cc1N(c1ccc(C#N)cc1)C[C@@H]2C` [Compound 74, (R)-4H-[1,2,4]Triazolo[4,3-a][1,5]benzodiazepine, 5,6-dihydro-1,4-dimethyl-8-(2-methyl-2H-1,2,3-triazole-4-yl)-6-(4-cyano-phenyl)] were 100 to 1000 nM and greater than 1000 nM. Turning to `Cc1nnc2n1-c1ccc(-c3ccc(N)nc3)cc1N(c1cnn(C)c1)C[C@H]2C` [Compound 76, (R)-5-(1,4-dimethyl-6-(1-methyl-1H-pyrazol-4-yl)-5,6-dihydro-4H-benzo[b][1,2,4]triazolo[4,3-d][1,4]diazepin-8-yl)pyridin-2-amine], the IC50 in experiment [1] and in experiment [2] was 100 to 1000 nM in each case. Turning to `Cc1nnc2n1-c1ccc(-c3ccc(=O)[nH]c3)cc1N(c1ccc(S(C)(=O)=O)cc1)C[C@H]2C` [Compound 78, (R)-5-(1,4-dimethyl-6-(4-(methylsulfonyl)phenyl)-5,6-dihydro-4H-benzo[b][1,2,4]triazolo[4,3-d][1,4]diazepin-8-yl)pyridin-2(1H)-one], the results for the IC50 (in experiment [1]; at BRD4 (BD1) (setting [3])) were 1000 to 10000 nM and 100 to 1000 nM, respectively.

With `Cc1nnc2n1-c1ccc(-c3cnc(N)cn3)cc1N(c1ccc(S(C)(=O)=O)cc1)C[C@H]2C` [Compound 79, (R)-5-(1,4-dimethyl-6-(4-(methylsulfonyl)phenyl)-5,6-dihydro-4H-benzo[b][1,2,4]triazolo[4,3-d][1,4]diazepin-8-yl)pyrazin-2-amine], the IC50 in experiment [1] was 100 to 1000 nM; at BRD4 (BD1) (setting [3]), less than 100 nM.
